Laboratory results reported in US12667101B2, “Picolinamide derivatives useful as agricultural fungicides” (GLOBACHEM NV, priority 2019, dated 2026).
≈ marks a conversion by molar mass, not a printed value.

Each compound was assayed on Zymoseptoria tritici (assay: Fungicidal activity screen in amended agar, 96 well plates). Details: 168 h, 1% potato dextrose agar amended to 20, 2, 0.2 and 0.02 ppm, 10,000 spores/mL, 18° C., assessed after 7 days, read-out: Zymoseptoria (EC50 ranking of fungal growth vs DMSO controls).
Type: cell-based
Method: Compounds were screened in 96 well plates with 10 compounds per plate. Each compound was screened using agar amended to 20, 2, 0.2 and 0.02 ppm of the test material. Proline at 50 and 10 ppm and 0.2% DMSO were used respectively as positive and negative controls. Each test concentration and standard were tested twice on a plate.
Compounds were screened against Zymoseptoria tritici. The agar used in the test was 1% potato dextrose agar. Sufficient spores were added to the appropriate agar to give 10,000 spores/mL agar.
A ×10 stock solution in 2% DMSO was produced for each dose i.e. 200, 20, 2 and 0.2 ppm, and 10 μl of this added to the appropriate wells on the plate. An equivalent amount of 2% DMSO and Proline stock at 500 and 100 ppm were added for the controls. To each well, 90 μl of the appropriate agar spore suspension was added to give the final well concentrations outlined in the first paragraph.
Plates were incubated at room temperature (18° C.) and assessed after 7 days.
The amount of fungal growth in each well was compared to the DMSO controls and scored according to the following key: • A—EC50<2 ppm • B—2≤EC50<20 • C—EC50≥20 • D—No activity detected at the highest dose tested • NT—Not tested
`COc1ccnc(C(=O)Nc2ccc3nc(Oc4ccc(F)cc4)ccc3c2)c1OC(C)=O` [Example 19, 2-((2-(4-fluorophenoxy)quinolin-6-yl)carbamoyl)-4-methoxypyridin-3-yl acetate] was tested, and the EC50 was < 2 µg/mL.
For `COc1ccnc2c(=O)n(-c3ccc4nc(Oc5ccccc5Cl)ccc4c3)c(=S)oc12` [Example 40, 3-(2-(2-chlorophenoxy)quinolin-6-yl)-8-methoxy-2-thioxo-2,3-dihydro-4H-pyrido[2,3-e][1,3]oxazin-4-one], the EC50 was < 2 µg/mL.
With `COc1ccnc(C(=O)Nc2ccc3nc(N(C)c4ccccc4Cl)ccc3c2)c1O` [Example 23, N-(2((2-chlorophenyl)(methyl)amino)quinolin-6-yl)-3-hydroxy-4-methoxypicolinamide] the EC50 was < 2 µg/mL.
In the case of `CCC(C)Oc1ccc2cc(NC(=O)c3nccc(OC)c3O)ccc2n1` (stereo not shown) [Example 11, N-(2-(sec-butoxy)quinolin-6-yl)-3-hydroxy-4-methoxypicolinamide], the EC50 is reported as < 2 µg/mL.
In the case of `CCCCCc1cc(Oc2ccc(F)cc2)nc2ccc(NC(=O)c3nccc(OC)c3O)cc12` [Example 21, N-(2-(4-fluorophenoxy)-4-pentylquinolin-6-yl)-3-hydroxy-4-methoxypicolinamide], the EC50 is reported as ≥ 20 µg/mL.
For `COc1ccnc(C(=O)Nc2ccc3nc(Sc4ccc(F)cc4)ccc3c2)c1OC(C)=O` [Example 29, 2-((2-((4-fluorophenyl)thio)quinolin-6-yl)carbamoyl)-4-methoxypyridin-3-yl acetate], the EC50 was ≥ 20 µg/mL.
`COc1ccnc(C(=O)Nc2ccc3nc(N(C)c4cccnc4Cl)ccc3c2)c1O` [Example 25, N-(2-((2-chloropyridin-3-yl)(methyl)amino)quinolin-6-yl)-3-hydroxy-4-methoxypicolinamide] gave an EC50 of 2 to 20 µg/mL (≈ 4.59 to 45.9 µM).
`COc1ccnc(C(=O)Nc2ccc3nc(OC(C)C)ccc3c2)c1O` [Example 5, 3-hydroxy-N-(2-isopropoxyquinolin-6-yl)-4-methoxypicolinamide] was tested, and the EC50 was < 2 µg/mL.
With `COc1ccnc(C(=O)Nc2ccc3nc(OCCC(C)C)ccc3c2)c1O` [Example 7, 3-hydroxy-N-(2-(isopentyloxy)quinolin-6-yl)-4-methoxypicolinamide] the EC50 was < 2 µg/mL.
For `COc1ccnc2c(=O)n(-c3ccc4nc(Sc5ccccc5Cl)ccc4c3)c(=S)oc12` [Example 43, 3-(2-((2-chlorophenyl)thio)quinolin-6-yl)-8-methoxy-2-thioxo-2,3-dihydro-4H-pyrido[2,3-e][1,3]oxazin-4-one], the EC50 was ≥ 20 µg/mL.
`COc1ccnc2c(=O)n(-c3ccc4nc(Sc5ccc(F)cc5)ccc4c3)c(=S)oc12` [Example 37, 3-(2-((4-fluorophenyl)thio)quinolin-6-yl)-8-methoxy-2-thioxo-2,3-dihydro-4H-pyrido[2,3-e][1,3]oxazin-4-one] was tested, and the EC50 was < 2 µg/mL.
In the case of `COc1ccnc(C(=O)Nc2ccc3nc(Oc4cccnc4Cl)ccc3c2)c1OC(C)=O` [Example 36, 2-((2-((2-chloropyridin-3-yl)oxy)quinolin-6-yl)carbamoyl)-4-methoxypyridin-3-yl acetate], the EC50 is reported as ≥ 20 µg/mL.
`COc1ccnc(C(=O)Nc2ccc3nc(Sc4cccnc4Cl)ccc3c2)c1OC(C)=O` [Example 35, 2-((2-((2-chloropyridin-3-yl)thio)quinolin-6-yl)carbamoyl)-4-methoxypyridin-3-yl acetate] was tested, and the EC50 was 2 to 20 µg/mL.
With `COc1ccccc1Oc1ccc2cc(-n3c(=S)oc4c(OC)ccnc4c3=O)ccc2n1` [Example 41, 8-methoxy-3-(2-(2-methoxyphenoxy)quinolin-6-yl)-2-thioxo-2,3-dihydro-4H-pyrido[2,3-e][1,3]oxazin-4-one] the EC50 was ≥ 20 µg/mL.
`CCC(C)Oc1ccc2cc(-n3c(=S)oc4c(OC)ccnc4c3=O)ccc2n1` (stereo not shown) [Example 38, 3-(2-(sec-butoxy)quinolin-6-yl)-8-methoxy-2-thioxo-2,3-dihydro-4H-pyrido[2,3-e][1,3]oxazin-4-one] gave an EC50 of 2 to 20 µg/mL (≈ 4.88 to 48.8 µM).
In the case of `COc1ccccc1Oc1ccc2cc(NC(=O)c3nccc(OC)c3O)ccc2n1` [Example 22, 3-hydroxy-4-methoxy-N-(2-(2-methoxyphenoxy)quinolin-6-yl)picolinamide], the EC50 is reported as ≥ 20 µg/mL.
For `COc1ccnc(C(=O)Nc2ccc3nc(Cl)ccc3c2)c1O` [Example 10, N-(2-chloroquinolin-6-yl)-3-hydroxy-4-methoxypicolinamide], the EC50 was ≥ 20 µg/mL.
`COc1ccnc(C(=O)Nc2ccc3cc(-c4ccccc4)ccc3n2)c1OC(C)=O` [Example 18, 4-methoxy-2-((6-phenylquinolin-2-yl)carbamoyl)pyridin-3-yl acetate] showed an EC50 of 2 to 20 µg/mL.
With `COc1ccnc(C(=O)Nc2ccc3nc(Sc4cccnc4Cl)ccc3c2)c1O` [Example 28, N-(2-((2-chloropyridin-3-yl)thio)quinolin-6-yl)-3-hydroxy-4-methoxypicolinamide] the EC50 was ≥ 20 µg/mL.
Work on `COc1ccnc(C(=O)Nc2ccc3cc(-c4ccccc4)ccc3n2)c1O` [Example 16, 3-hydroxy-4-methoxy-N-(6-phenylquinolin-2-yl)picolinamide] yielded an EC50 of 2 to 20 µg/mL (≈ 5.39 to 53.9 µM).
In the case of `COc1ccnc2c(=O)n(-c3ccc4nc(Sc5cccnc5Cl)ccc4c3)c(=S)oc12` [Example 45, 3-(2-((2-chloropyridin-3-yl)thio)quinolin-6-yl)-8-methoxy-2-thioxo-2,3-dihydro-4H-pyrido[2,3-e][1,3]oxazin-4-one], the EC50 is reported as ≥ 20 µg/mL.
`COc1ccnc(C(=O)Nc2ccc3nc(Sc4ccccc4Cl)ccc3c2)c1OC(C)=O` [Example 33, 2-((2-((2-chlorophenyl)thio)quinolin-6-yl)carbamoyl)-4-methoxypyridin-3-yl acetate] was tested, and the EC50 was ≥ 20 µg/mL.
With `CCCCOc1ccc2cc(NC(=O)c3nccc(OC)c3O)ccc2n1` [Example 4, N-(2-butoxyquinolin-6-yl)-3-hydroxy-4-methoxypicolinamide] the EC50 was 2 to 20 µg/mL (≈ 5.44 to 54.4 µM).
In the case of `COc1ccnc2c(=O)n(-c3ccc4nc(Oc5cccnc5Cl)ccc4c3)c(=S)oc12` [Example 44, 3-(2-((2-chloropyridin-3-yl)oxy)quinolin-6-yl)-8-methoxy-2-thioxo-2,3-dihydro-4H-pyrido[2,3-e][1,3]oxazin-4-one], the EC50 is reported as ≥ 20 µg/mL.
`COc1ccnc(C(=O)Nc2ccc3nc(Oc4ccccc4Cl)ccc3c2)c1O` [Example 20, N-(2-(2-chlorophenoxy)quinolin-6-yl)-3-hydroxy-4-methoxypicolinamide] was tested, and the EC50 was ≥ 20 µg/mL.
With `COc1ccnc(C(=O)Nc2ccc3nc(N(C)c4ccccc4Cl)ccc3c2)c1OC(C)=O` [Example 32, 2-((2-((2-chlorophenyl)(methyl)amino)quinolin-6-yl)carbamoyl)-4-methoxypyridin-3-yl acetate] the EC50 was < 2 µg/mL.
For `COc1ccnc(C(=O)Nc2ccc3nc(Sc4ccccc4Cl)ccc3c2)c1O` [Example 26, N-(2-((2-chlorophenyl)thio)quinolin-6-yl)-3-hydroxy-4-methoxypicolinamide], the EC50 was < 2 µg/mL.
In the case of `COc1ccnc(C(=O)Nc2ccc3nc(OC(C)C(C)C)ccc3c2)c1O` (stereo not shown) [Example 6, 3-hydroxy-4-methoxy-N-(2-((3-methylbutan-2-yl)oxy)quinolin-6-yl)picolinamide], the EC50 is reported as < 2 µg/mL.
In the case of `CCCCCc1cc(Oc2ccc(F)cc2)nc2ccc(NC(=O)c3nccc(OC)c3OC(C)=O)cc12` [Example 31, 2-((2-(4-fluorophenoxy)-4-pentylquinolin-6-yl)carbamoyl)-4-methoxypyridin-3-yl acetate], the EC50 is reported as ≥ 20 µg/mL.
Work on `COc1ccnc(C(=O)Nc2ccc3cc(Br)ccc3n2)c1O` [Example 15, N-(6-bromoquinolin-2-yl)-3-hydroxy-4-methoxypicolinamide] yielded an EC50 of 2 to 20 µg/mL (≈ 5.34 to 53.4 µM).
`CCOc1ccc2cc(NC(=O)c3nccc(OC)c3O)ccc2n1` [Example 1, N-(2-ethoxyquinolin-6-yl)-3-hydroxy-4-methoxypicolinamide] showed an EC50 of 2 to 20 µg/mL (≈ 5.89 to 58.9 µM).
